{"source": "patent US11479604B2", "about": "“Immunomodulatory peptides and methods for modulating the immune system in a subject” (Recepta Biopharma S.A., priority 2017, dated 2022)", "key": {"[1]": {"system": "mo-DC obtained from cancer patients' monocytes", "assay": "Allogeneic T cell proliferation induced by cancer patients' mo-DC", "format": "cell-based, human", "description": "Mo-DC were co-cultured with allogeneic lymphocytes (DC:Ly=1:30) to evaluate their ability to induce lymphocyte proliferation. This was measured by carboxyfluorescein succinimidyl ester (CFSE—Molecular Probes) dilution and activation measured by correlation among CD4/CD25 and Foxp3 expression (Clavijo-Salomon et al., 2016).\nSince it is well known that mo-DC from cancer patients can be functionally biased, but are not always so, the patients were separated into two groups, according to their mo-DC ability to induce allogeneic T cell proliferation. Patients whose mo-DC induced less than 35% of the phytohemagglutinin A (PHA)-induced response constituted one group (“defective”) and those whose mo-DC induced a response higher than 35% of the PHA response, the other (“normal”)."}, "[2]": {"system": "B16F10-Nex2 melanoma cells", "assay": "Syngeneic metastatic melanoma model, lung nodule count", "format": "in vivo, C57BL/6 mice", "description": "Male C57BL/6 mice, 6 to 8-week-old were obtained from the Center for Development of Experimental Models (CEDEME), Federal University of Sao Paulo (UNIFESP). For the in vivo metastatic model, C57BL/6 mice received one intravenous (i.v.) injection of 2×10^5 viable B16-F10-Next melanoma cells in 100 μL. […] The control group received 100 μL PBS. Twenty-two days later, mice (minimum n=3 per group) had their lungs harvested, and the number of macroscopic melanotic nodules were counted. The Ethical Committee of Federal University of São Paulo, Project no. 1234, 2011, approved all experiments with animals, according to International guidelines. For the subcutaneous model, mice were injected with 5×10^5 tumor cells suspended in 100 μL of PBS in the right flank via the subcutaneous route. The peptide (300 μg) was solubilized in 10 μL of distilled H2O and 90 μL of PBS and injected per mouse via the intraperitoneal route. The administration of the peptide was performed in 5 alternate days initiating one day after tumor challenge. Tumor longitudinal diameter (D) and transverse diameter (d) were measured every 2 days until the tumor volume reached 3,000 mm3. Animals were sacrificed when the allowed volume was reached. Volume was calculated using the formula v=Dd^2×0.52. Tumor Cell Growth In Vitro and In Vivo Details of the in vitro tumor cell growth, cytotoxicity tests, determination of viable cells and in vivo protection experiments with B16F10 cells in a mouse metastatic model are described in Polonelli et al. (PLoS One. 3(6):e2371, 2008) and Dobroff et al. (Transl. Onc., 3: 204-217, 2010).\n6 to 8 Week-old C57BL/6 mice (n=5, per group) were intravenously challenged with 1×10^5 of syngeneic B16F10-Nex2 viable cells in 0.1 mL of RPMI medium without FBS, and treated on the next day with intraperitoneal doses of 300 μg (10 mg/kg) each, of Scr1, Scr2, Scr3 or Scr4 peptide or with the control vehicle (PBS) in alternate days, total of 5 doses. After 14 days, mice were euthanized, and lungs were harvested and assessed for metastatic colonization. The number of metastatic lesions was quantified using a stereo microscope (Nikon, Tokyo). The percentage of the tumor area/total area was also quantified by ImageJ software.\nB16F10-Nex2 tumor cells (2×10^5) in RPMI (100 μl) were injected in both animal groups in the tail veins on day 0. Animals were sacrificed on day 22, or 10 days after the last administration of the peptide, and their lungs were examined for dark melanotic nodules.\nC57Bl6 mice were intravenously challenged with 4×10^5 syngeneic B16F10-Nex2 cells in 0.1 ml of RPMI without FBS.\nMice were injected with 5×10^5 B16F10-Nex2 cells i.v. suspended in 100 μl PBS. […] Imiquimod at 50 μg/100 μl was injected i.p. in 3 alternate days; CpG ODN 1585, i.p., in two alternate days; and Poly (I:C), i.p., in two alternate days. After 15 days of tumor challenge, the animals were sacrificed, the lungs were removed and the pulmonary nodules were counted."}, "[3]": {"system": "splenocytes", "assay": "Splenocyte cytokine production in melanoma-bearing treated mice (ELISA)", "format": "in vivo", "conditions": "300 μg i.p. 5 consecutive days", "description": "Mice were challenged with 5×10^5 B16F10-Nex2 cells via the i.v. route. […] Peptides at 300 μg solubilized in 10 μl distilled H2O and 90 μl of PBS were injected via i.p. route per animal, for 5 consecutive days initiating one day after tumor cell challenge. Seventeen days after tumor challenge mice were sacrificed and spleens were removed. Splenocytes after incubation in hemolysis buffer were suspended in R10 medium and plated in 6-well plates and 10^6 cells/well. Cells were incubated for 72 h with or without tumor cell lysate (from 10^5 B16F10-Nex2 cells) in triplicate. The supernatants were collected, and cytokines measured by ELISA (FIG. 11)."}, "[4]": {"system": "LPS stimulated DCs characterized by CD11c+ MHC-II+", "assay": "Co-stimulatory markers of LPS stimulated murine bone-marrow DCs", "format": "cell-based", "description": "Rb9 immunomodulation of murine bone-marrow dendritic cells (DCs) was also examined focusing on co-stimulatory markers."}}, "data": [{"substance": "[CARGETARATFAYWGQGC], NH2 (C-C) [Rb9]", "values": [{"measurement": "ability of \"defective\" mo-DC to induce allogeneic T cell proliferation", "setting": "[1]", "result": "enhanced the ability"}, {"measurement": "lympho-stimulatory activity of \"normal\" mo-DC", "setting": "[1]", "result": "inhibited the lympho-stimulatory activity"}, {"measurement": "protection in the metastatic model", "setting": "[2]; 50-100 μg i.p. doses", "result": "significant protection"}, {"measurement": "efficiency of administration route for antitumor protection", "setting": "[2]; i.d. route compared with i.p. and i.v.", "result": "mostly efficient"}, {"measurement": "antitumor activity (pulmonary nodules)", "setting": "[2]; i.p., alone, Rb9 300 μg 5 consecutive days, Imiquimod 50 μg 3 alternate days, CpG and Poly (I:C) two alternate days, 15 days after challenge", "result": "Antitumor activities of Rb9 and Imiquimod were the same"}, {"measurement": "antitumor activity of the combination of Rb9 and Imiquimod", "setting": "[2]; i.p., 15 days after challenge", "result": "not additive"}, {"measurement": "number of lung tumor cell nodules (protection)", "setting": "[2]; immunocompetent C57Bl6 mice, 250 μg i.p. on days 1,3,5,7,9,11, lungs on day 22", "result": "clearly protective"}, {"measurement": "best concentrations for protection, dose range per animal", "setting": "[2]; metastatic model", "result": "200 to 300", "unit": "µg"}, {"measurement": "IL-12 production in splenocytes", "setting": "[3]; no stimulus necessary", "result": "comparable in the three groups"}, {"measurement": "IFN-gamma production in splenocytes", "setting": "[3]; splenocytes with tumor cell lysate 72 h, relative to untreated control", "result": "increased"}, {"measurement": "IL-10 production in splenocytes", "setting": "[3]; with tumor cell lysate", "result": "no effect"}, {"measurement": "TNF-alpha production in splenocytes", "setting": "[3]; with tumor cell lysate", "result": "no effect"}, {"measurement": "IL-6 production in splenocytes", "setting": "[3]; with tumor cell lysate, relative to untreated control", "result": "decreased"}, {"measurement": "CD40 expression", "setting": "[4]", "result": "regulated CD40 expression"}, {"measurement": "expression of CD80 and CD86", "setting": "[4]; Rb9 mainly at 50 μg/ml", "result": "significantly stimulated"}]}]}
